The source of these data is patent publication US10759781B2, “Substituted guanidine derivatives” (UBE INDUSTRIES, LTD., priority 2015, dated 2020).

Counter-ions that a name gives are not always drawn.

For one assay, the target named is T1, Human VAP-1 enzyme (Homo sapiens, UniProt Q16853).
T1 construct: purchased R&D Systems, Inc
T1 sequence (Q16853 1-763): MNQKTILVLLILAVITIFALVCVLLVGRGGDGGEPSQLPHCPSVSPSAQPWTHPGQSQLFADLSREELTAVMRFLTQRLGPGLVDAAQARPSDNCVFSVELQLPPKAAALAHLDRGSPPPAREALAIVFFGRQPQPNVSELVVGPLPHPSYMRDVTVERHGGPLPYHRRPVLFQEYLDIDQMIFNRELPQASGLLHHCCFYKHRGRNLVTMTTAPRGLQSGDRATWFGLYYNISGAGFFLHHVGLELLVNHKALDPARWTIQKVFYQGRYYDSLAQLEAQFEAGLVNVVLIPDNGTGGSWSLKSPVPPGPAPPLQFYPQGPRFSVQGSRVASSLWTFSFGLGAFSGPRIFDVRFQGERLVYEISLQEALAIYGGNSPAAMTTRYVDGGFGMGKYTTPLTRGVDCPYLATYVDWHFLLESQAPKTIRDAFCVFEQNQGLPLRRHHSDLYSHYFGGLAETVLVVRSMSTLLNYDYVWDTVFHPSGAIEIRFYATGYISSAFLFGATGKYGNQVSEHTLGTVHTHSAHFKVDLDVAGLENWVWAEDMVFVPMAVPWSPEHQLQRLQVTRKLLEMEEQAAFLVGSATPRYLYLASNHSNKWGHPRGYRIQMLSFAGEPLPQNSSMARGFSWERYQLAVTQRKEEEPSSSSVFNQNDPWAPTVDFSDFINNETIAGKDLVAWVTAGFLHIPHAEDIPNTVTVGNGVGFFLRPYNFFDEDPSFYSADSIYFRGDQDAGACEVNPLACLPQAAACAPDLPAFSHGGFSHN
Nature of the assay: Human VAP-1 enzyme inhibition test. Type of assay: biochemical. The conditions noted are these: 1 h; compound 30 nM; 14C-benzylamine 100 μM; read-out: inhibition ratio (human VAP-1 enzyme). The method, boiled down:
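Recombinant human VAP-1 pre-incubated 20 min at room temperature with compound in DMSO, then reacted with 14C-benzylamine (100 μM final) 1 h at 37 °C. Citric acid stop; oxidized product extracted into toluene/ethyl acetate and counted by liquid scintillation. Inhibition ratio relative to DMSO-only activity.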

The next assay has as its target T2, Rat Plasma VAP-1 (Rattus norvegicus, UniProt O08590).
T2 construct: from tissue; host or cells: plasma of SD male rats (7-12 weeks old) after oral dosing
T2 sequence (O08590 28-763 limits assumed): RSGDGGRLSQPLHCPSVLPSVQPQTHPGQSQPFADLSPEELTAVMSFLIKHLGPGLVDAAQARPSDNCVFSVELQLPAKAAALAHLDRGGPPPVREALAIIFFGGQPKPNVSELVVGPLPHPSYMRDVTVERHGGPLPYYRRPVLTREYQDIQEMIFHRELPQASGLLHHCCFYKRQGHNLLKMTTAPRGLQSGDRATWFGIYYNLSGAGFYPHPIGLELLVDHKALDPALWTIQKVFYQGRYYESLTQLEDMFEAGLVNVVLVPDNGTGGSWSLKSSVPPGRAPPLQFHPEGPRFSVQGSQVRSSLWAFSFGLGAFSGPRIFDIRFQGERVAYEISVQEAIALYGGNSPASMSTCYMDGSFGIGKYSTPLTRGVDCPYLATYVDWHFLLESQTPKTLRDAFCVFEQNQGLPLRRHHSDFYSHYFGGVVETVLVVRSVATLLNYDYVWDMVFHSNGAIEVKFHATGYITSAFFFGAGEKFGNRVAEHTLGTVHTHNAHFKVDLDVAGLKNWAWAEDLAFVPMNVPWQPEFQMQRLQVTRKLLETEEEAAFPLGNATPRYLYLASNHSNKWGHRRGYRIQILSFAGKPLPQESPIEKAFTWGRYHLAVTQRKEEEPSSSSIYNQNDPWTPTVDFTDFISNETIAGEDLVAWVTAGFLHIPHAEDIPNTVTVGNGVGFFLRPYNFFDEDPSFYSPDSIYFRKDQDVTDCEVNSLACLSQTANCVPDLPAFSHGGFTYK
The assay can be described thus: (Ex vivo) rat plasma VAP-1 inhibition test after oral administration of the compound. Type of assay: in vivo. The conditions noted are these: 3 hours after oral administration, SD male rats, read-out: inhibition ratio (plasma VAP-1, ex vivo). How it is done: (Ex Vivo) Rat Plasma VAP-1 Inhibition Test after Oral Administration of the Compound
The compound was orally administered (0.3-10 mg/kg) to 7-12 week old SD male rats in the non-fasting state. Under anesthesia, the blood was collected in heparin tubes from the jugular vein before the administration and 3, 8 and 24 hours after the administration. The blood was centrifuged at 14000 rpm for 10 minutes to get plasma. The VAP-1 enzyme activity in the plasma was measured by radiochemical enzyme assay.
The radiochemical enzyme assay was conducted by modifying the method of P. H. Yu et al. (Diabetologia 40 1243 (1997)). ^14C-benzylamine (2.5 μM) was added to the obtained plasma, and was incubated at 37° C. for 3 hours. The reaction was terminated by the addition of 100 μL of 2 M citric acid solution to the reaction solution. The oxidative product was extracted using a toluene/ethyl acetate mixture and the radioactivity was measured with a liquid scintillation counter. The inhibition ratio of the compound was calculated using the following equation. Inhibition ratio={1−[Plasma VAP-1 activity after administration of the compound]/[Plasma VAP-1 activity before administration]}×100

On to `COCCON=C1CN(c2ncc(-c3cccc(COC(=O)NC(=N)N)c3F)cn2)C1` [Example 12, 2-Fluoro-3-(2-{3-[(2-methoxyethoxy)imino]azetidin-1-yl}pyrimidin-5-yl)benzyl carbamimidoylcarbamate], for which the inhibition at 0.03 µM at Human VAP-1 enzyme is at least 50%. The inhibition in vivo at 0.3 mg/kg at Rat Plasma VAP-1 was at least 50%.

Consider `COCC(CON=C1CN(c2ncc(-c3cccc(COC(=O)NC(=N)N)c3F)cn2)C1)OC(C)=O` (stereo not shown) [Example 20, 1-[({1-[5-(3-{[(Carbamimidoylcarbamoyl)oxy]methyl}-2-fluorophenyl)pyrimidin-2-yl]azetidin-3-ylidene}amino)oxy]-3-methoxypropan-2-yl acetate], for which the inhibition at 0.03 µM at Human VAP-1 enzyme was at least 50%. The inhibition in vivo at 0.3 mg/kg at Rat Plasma VAP-1 was at least 50%.

As for `CON=C1CN(c2ccc(-c3cccc(COC(=O)NC(=N)N)c3F)cn2)C1` [Example 41, 2-Fluoro-3-{6-[3-(methoxyimino)azetidin-1-yl]pyridin-3-yl}benzyl carbamimidoylcarbamate], on Human VAP-1 enzyme, the inhibition at 0.03 µM was at least 50%. The inhibition in vivo at 0.3 mg/kg on Rat Plasma VAP-1 is at least 50%.

`CON=C1CN(c2ncc(-c3cccc(COC(=O)NC(=N)N)c3F)cc2C)C1` [Example 42, 2-Fluoro-3-{6-[3-(methoxyimino)azetidin-1-yl]-5-methylpyridin-3-yl}benzyl carbamimidoylcarbamate]: the inhibition at 0.03 µM at Human VAP-1 enzyme was at least 50%. On Rat Plasma VAP-1, the inhibition in vivo at 0.3 mg/kg was at least 50%.

Consider `N=C(N)NC(=O)OCc1cccc(-c2cnc(N3CCC(=NOCCOC4CCCCO4)CC3)nc2)c1F` (stereo not shown) [Example 57, 2-Fluoro-3-{2-[4-({2-[(tetrahydropyran-2-yl)oxy]ethoxy}imino)piperidin-1-yl]pyrimidin-5-yl}benzyl carbamimidoylcarbamate], for which the inhibition at 0.03 µM on Human VAP-1 enzyme was at least 50%. Also, at Rat Plasma VAP-1, the inhibition in vivo at 0.3 mg/kg was at least 50%.

Regarding `COCCON=C1CCN(c2ncc(-c3cccc(COC(=O)NC(=N)N)c3F)cn2)CC1` [Example 60, 2-Fluoro-3-(2-{4-[(2-methoxyethoxy)imino]piperidin-1-yl}pyrimidin-5-yl)benzyl carbamimidoylcarbamate], the inhibition at 0.03 µM on Human VAP-1 enzyme is at least 50%. Moreover, the inhibition in vivo at 0.3 mg/kg on Rat Plasma VAP-1 was at least 50%.

Turning to `CC(=O)OCCON=C1CCN(c2ncc(-c3cccc(COC(=O)NC(=N)N)c3F)cn2)CC1` [Example 68, 2-[({1-[5-(3-{[(Carbamimidoylcarbamoyl)oxy]methyl}-2-fluorophenyl)pyrimidin-2-yl]piperidin-4-ylidene}amino)oxy]ethyl acetate], at Human VAP-1 enzyme, the inhibition at 0.03 µM was at least 50%. Moreover, the inhibition in vivo at 0.3 mg/kg at Rat Plasma VAP-1 was at least 50%.

For the molecule `CO/N=C1\CCN(c2ncc(-c3cccc(COC(=O)NC(=N)N)c3F)cn2)C1` [Example 69, (E/Z)-2-fluoro-3-{2-[3-(methoxyimino)pyrrolidin-1-yl]pyrimidin-5-yl}benzyl carbamimidoylcarbamate], at Human VAP-1 enzyme, the inhibition at 0.03 µM was at least 50%. At Rat Plasma VAP-1, the inhibition in vivo at 0.3 mg/kg was at least 50%.

`N=C(N)NC(=O)OCc1cccc(-c2cnc(N3CC(=NO)C3)nc2)c1F` [Example 70, 2-Fluoro-3-{2-[3-(hydroxyimino)azetidin-1-yl]pyrimidin-5-yl}benzyl carbamimidoylcarbamate]: on Human VAP-1 enzyme, the inhibition at 0.03 µM is at least 50%. Moreover, the inhibition in vivo at 0.3 mg/kg at Rat Plasma VAP-1 was at least 50%.

Turning to `N=C(N)NC(=O)OCc1cccc(-c2cnc(N3CC(=NOCCCO)C3)nc2)c1F` [Example 72, 2-Fluoro-3-(2-{3-[(3-hydroxypropoxy)imino]azetidin-1-yl}pyrimidin-5-yl)benzyl carbamimidoylcarbamate], the inhibition at 0.03 µM on Human VAP-1 enzyme is at least 50%. Further, the inhibition in vivo at 0.3 mg/kg at Rat Plasma VAP-1 was at least 50%.

Turning to `N=C(N)NC(=O)OCc1cccc(-c2cnc(N3CC(=NOCC(CO)COC(=O)c4ccccc4)C3)nc2)c1F` (stereo not shown) [Example 83, 3-[({1-[5-(3-{[(Carbamimidoylcarbamoyl)oxy]methyl}-2-fluorophenyl)pyrimidin-2-yl]azetidin-3-ylidene}amino)oxy]-2-(hydroxymethyl)propyl benzoate], the inhibition in vivo at 0.3 mg/kg on Rat Plasma VAP-1 is at least 50%.

Turning to `N=C(N)NC(=O)OCc1cccc(-c2cnc(N3CCC(=NOCCO)CC3)nc2)c1F` [Example 85, 2-Fluoro-3-(2-{4-[(2-hydroxyethoxy)imino]piperidin-1-yl}pyrimidin-5-yl)benzyl carbamimidoylcarbamate], at Human VAP-1 enzyme, the inhibition at 0.03 µM is at least 50%. Besides, the inhibition in vivo at 0.3 mg/kg at Rat Plasma VAP-1 was at least 50%.

For `N=C(N)NC(=O)OCc1cccc(-c2cnc(N3CCC(=NOCCCO)CC3)nc2)c1F` [Example 86, 2-Fluoro-3-(2-{4-[(3-hydroxypropoxy)imino]piperidin-1-yl}pyrimidin-5-yl)benzyl carbamimidoylcarbamate hydrochloride], the inhibition at 0.03 µM at Human VAP-1 enzyme was at least 50%. Also, the inhibition in vivo at 0.3 mg/kg at Rat Plasma VAP-1 is at least 50%.

As for `N=C(N)NC(=O)OCc1cccc(-c2cnc(N3CCC(=NOCCCCO)CC3)nc2)c1F` [Example 87, 2-Fluoro-3-(2-{4-[(4-hydroxybutoxy)imino]piperidin-1-yl}pyrimidin-5-yl)benzyl carbamimidoylcarbamate hydrochloride], at Human VAP-1 enzyme, the inhibition at 0.03 µM was at least 50%. Further, at Rat Plasma VAP-1, the inhibition in vivo at 0.3 mg/kg is at least 50%.

Consider `CC(O)CON=C1CCN(c2ncc(-c3cccc(COC(=O)NC(=N)N)c3F)cn2)CC1` (stereo not shown) [Example 90, 2-Fluoro-3-(2-{4-[(2-hydroxypropoxy)imino]piperidin-1-yl}pyrimidin-5-yl)benzyl carbamimidoylcarbamate], for which the inhibition at 0.03 µM on Human VAP-1 enzyme is at least 50%. Moreover, at Rat Plasma VAP-1, the inhibition in vivo at 0.3 mg/kg is at least 50%.

Consider `CC(CO)CON=C1CCN(c2ncc(-c3cccc(COC(=O)NC(=N)N)c3F)cn2)CC1` (stereo not shown) [Example 91, 2-Fluoro-3-(2-{4-[(3-hydroxy-2-methylpropoxy)imino]piperidin-1-yl}pyrimidin-5-yl)benzyl carbamimidoylcarbamate], for which, on Human VAP-1 enzyme, the inhibition at 0.03 µM was at least 50%. Moreover, the inhibition in vivo at 0.3 mg/kg on Rat Plasma VAP-1 was at least 50%.

For `N=C(N)NC(=O)OCc1cccc(-c2cnc(N3CC(=NOCCC(O)CO)C3)nc2)c1F` (stereo not shown) [Example 94, 3-(2-{3-[(3,4-Dihydroxybutoxy)imino]azetidin-1-yl}pyrimidin-5-yl)-2-fluorobenzyl carbamimidoylcarbamate], the inhibition at 0.03 µM at Human VAP-1 enzyme was at least 50%. Besides, the inhibition in vivo at 0.3 mg/kg at Rat Plasma VAP-1 is at least 50%.

For the molecule `CCOC(=O)CCON=C1CCN(c2ncc(-c3cccc(COC(=O)NC(=N)N)c3F)cn2)CC1` [Example 149, Ethyl 3-[({1-[5-(3-{[(carbamimidoylcarbamoyl)oxy]methyl}-2-fluorophenyl)pyrimidin-2-yl]piperidin-4-ylidene}amino)oxy]propanoate], on Rat Plasma VAP-1, the inhibition in vivo at 0.3 mg/kg was at least 50%.
